Experimental data from article PMC11700842 (The Journal of Antibiotics, 2024).
pIC50: −log10 of the molar value. ≈ marks a conversion by molar mass, not a printed value. Where two headings read alike, the source gives them in different places.

Key:
M. bovis BCG [1] = type: cell-based; conditions: analogues 100 µM, verapamil 102 µM, with glucose; for % Change in fluorescence (efflux): end of 60 min assay; for Rate of efflux (ethidium bromide): rate from 0–9 minutes
M. smegmatis [2] = test: MIC determination (resazurin) against M. smegmatis; type: cell-based, M. smegmatis mc^2155; conditions: Mycolicibacterium smegmatis; lowest concentration reducing growth to 1% or less; 21 h + 3 h resazurin; N = 3
M. smegmatis [3] = test: Ethidium bromide accumulation assay in M. smegmatis; type: cell-based; conditions: analogues 100 µM, verapamil 102 µM, with glucose; for % Change in fluorescence (accumulation): end of 60 min assay; for Rate of accumulation (ethidium bromide): rate from 5–14 minutes
E. faecium E745 = test: microbe, parasite or virus in culture; type: cell-based; conditions: Enterococcus faecium, E745, 24 h, read-out: MIC99 E. faecium E745
M. smegmatis [4] = test: Ethidium bromide efflux assay in M. smegmatis; type: cell-based; conditions: for % Change in fluorescence (efflux) / Rate of efflux (ethidium bromide): analogues 100 µM, verapamil 102 µM, with glucose; for % Change in fluorescence (efflux): end of 60 min assay; for Rate of efflux (ethidium bromide): rate from 0–9 minutes
M. bovis BCG [5] = type: cell-based; conditions: analogues 100 µM, verapamil 102 µM, with glucose; for % Change in fluorescence (accumulation): end of 60 min assay; for Rate of accumulation (ethidium bromide): rate from 5–14 minutes
[6] = system: M. bovis BCG membrane electric potential; type: cell-based
[7] = molecular target: T1, human dopamine transporter (Homo sapiens, UniProt Q01959); test: cell-based; type: cell-based; conditions: for pIC50: CHO cells transfected with human dopamine transporter, 0.3 µM [3H] dopamine, 90 min, read-out: IC50 against dopamine transporter; for pIC50 / inhibition at 0.1 µM: N = 3; for inhibition at 0.1 µM: CHO, dopamine transporter uptake, 100 nM
T1 construct: host or cells: Chinese hamster ovary (CHO) cells
T1 sequence (Q01959 whole entry): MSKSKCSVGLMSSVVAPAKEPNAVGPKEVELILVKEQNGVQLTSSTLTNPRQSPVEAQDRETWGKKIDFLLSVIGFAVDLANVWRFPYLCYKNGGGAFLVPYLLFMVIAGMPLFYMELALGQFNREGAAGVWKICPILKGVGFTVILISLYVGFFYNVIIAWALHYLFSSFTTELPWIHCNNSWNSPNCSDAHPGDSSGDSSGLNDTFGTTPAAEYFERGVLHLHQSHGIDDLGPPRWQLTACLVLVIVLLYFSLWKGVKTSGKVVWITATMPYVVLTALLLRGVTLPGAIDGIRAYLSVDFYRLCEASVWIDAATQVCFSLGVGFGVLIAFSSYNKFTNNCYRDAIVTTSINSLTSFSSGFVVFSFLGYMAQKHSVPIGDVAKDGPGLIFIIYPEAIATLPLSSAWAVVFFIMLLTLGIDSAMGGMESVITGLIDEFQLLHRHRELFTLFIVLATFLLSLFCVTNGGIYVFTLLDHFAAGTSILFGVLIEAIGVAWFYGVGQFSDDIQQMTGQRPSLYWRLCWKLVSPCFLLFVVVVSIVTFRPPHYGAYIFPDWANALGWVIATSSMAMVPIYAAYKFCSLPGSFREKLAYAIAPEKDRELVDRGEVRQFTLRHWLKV
Method: This assay was performed by Eurofins Discovery and is based on a reported method. […] Following incubation, the amount of [^3H] dopamine was quantified using a scintillation counter (Topcount, Packard). The results were expressed as a percentage inhibition relative to the control uptake of [^3H] dopamine.
In this assay, five concentrations of each analogue were tested, in triplicate, ranging from 10 µM to 100 nM (Supplementary Fig. S2).
26 Supplementary Figure S2: Dopamine transporter uptake assays monitoring
The uptake of [3H] dopamine into Chinese
28 hamster ovary cells, transfected with the human dopamine transporter, was used to […]

dopamine transporter [8] = type: cell-based; conditions: based on IC50 from Paudel et al.
dopamine transporter [9] = system: dopamine transporter; set-up: method as in PMID 28274674; conditions: human embryonic kidney 293 cells; 20 nM [3H] dopamine over 5 min at 37 °C; read-out: IC50 against the dopamine transporter; cited from earlier work
[10] = three patients with structural heart disease; cited from earlier work
Streptococcus pneumoniae = system: Streptococcus pneumoniae; set-up: method as in PMID 36982905; conditions: cited from earlier work
[11] = M. bovis BCG, test compounds 100 µM, CCCP 25 µM, Fig. 3

| Compound | % Change in fluorescence (efflux) (M. bovis BCG [1]) | Rate of efflux (ethidium bromide) (M. bovis BCG [1]) | MIC99 (M. smegmatis [2]) [µM] | % Change in fluorescence (accumulation) (M. smegmatis [3]) [%] | Rate of accumulation (ethidium bromide) (M. smegmatis [3]) [RFUs/min] | MIC99 (E. faecium E745) [µM] | % Change in fluorescence (efflux) (M. smegmatis [4]) | Rate of efflux (ethidium bromide) (M. smegmatis [4]) | % Change in fluorescence (accumulation) (M. bovis BCG [5]) [%] | Rate of accumulation (ethidium bromide) (M. bovis BCG [5]) [RFUs/min] | impact on membrane electric potential (in words) [6, 11] | effect on ethidium bromide efflux (in words) (M. smegmatis [4]; 100 µM) | impact on membrane electric potential (in words) [6] | pIC50 [7] | inhibition at 0.1 µM [7] [%] | difference between MIC99 against M. bovis BCG and IC50 against the dopamine transporter (dopamine transporter [8]) [×] | pIC50 (dopamine transporter [9]) | difference between MIC99 against M. bovis BCG and IC50 against the dopamine transporter ([7]; based on data of this study) [×] | adverse cardiac event in phase III clinical trial [10] | activity against Streptococcus pneumoniae (in words) (Streptococcus pneumoniae) |
| --- | --- | --- | --- | --- | --- | --- | --- | --- | --- | --- | --- | --- | --- | --- | --- | --- | --- | --- | --- | --- |
| c1ccc(CCCN2CCN(CCOC(c3ccccc3)c3ccccc3)CC2)cc1 [GBR12935, 1-[2-(Diphenylmethoxy)ethyl]-4-(3-phenylpropyl)piperazine, reference compound] | –16 ± 0.1% | –1300 ± 150 RFUs/min | 100 | 90 ± 3 | 1100 ± 40 | > 100 | –37 ± 0.2% | –2000 ± 100 RFUs/min | 34 ± 2 | 160 ± 240 |  |  |  |  |  |  |  |  |  |  |
| CCCCCCCCCC(=O)OC(CCN1CCN(CCOC(c2ccc(F)cc2)c2ccc(F)cc2)CC1)c1ccccc1 (stereo not drawn) [Compound 11] | –28 ± 25% | –1900 ± 400 RFUs/min | > 100 | 39 ± 2 | 1000 ± 160 | > 100 | –59 ± 0.1% | –5600 ± 160 RFUs/min | 45 ± 1 | 400 ± 300 | no impact on the electric potential | no effect on ethidium bromide efflux |  |  |  |  |  |  |  |  |
| N#CC(C#N)=NNc1cccc(Cl)c1 [CCCP, Carbonyl cyanide m-chlorophenyl hydrazone, reference compound] |  |  |  |  |  |  |  |  |  |  |  |  | greatest loss of electric potential |  |  |  |  |  |  |  |
| Fc1ccc(CN2CCN(CCOC(c3ccc(F)cc3)c3ccc(F)cc3)CC2)cc1 [Compound 5] | –20 ± 0.02% | –1500 ± 50 RFUs/min | > 100 | 175 ± 4 | 1300 ± 20 | > 100 | –25 ± 0.2% | –1700 ± 200 RFUs/min | 39 ± 1 | 130 ± 130 |  |  |  |  |  |  |  |  |  |  |
| OC(CCN1CCN(CCOC(c2ccc(F)cc2)c2ccc(F)cc2)CC1)c1ccccc1 (stereo not drawn) [Compound 9] | –16 ± 0.4% | –1200 ± 600 RFUs/min | 100 | 349 ± 1 | 4500 ± 40 | > 100 | –11 ± 0.1% | –1100 ± 110 RFUs/min | 68 ± 1 | 1100 ± 1000 | greater impact than vanoxerine |  |  | > 7.00 | 98.2 |  |  |  |  |  |
| COc1ccc(CCN(C)CCCC(C#N)(c2ccc(OC)c(OC)c2)C(C)C)cc1OC (stereo not drawn) [verapamil, reference compound] |  |  |  | 210 ± 7 | 2900 ± 140 |  |  |  | 52 ± 6 | 640 ± 1400 |  |  |  |  |  |  |  |  |  |  |
| C#CCOC(CCN1CCN(CCOC(c2ccc(F)cc2)c2ccc(F)cc2)CC1)c1ccccc1 (stereo not drawn) [Compound 10] | –13 ± 0.3% | –940 ± 700 RFUs/min | 100 | 323 ± 7 | 4500 ± 260 | > 100 | –13 ± 0.1% | –1200 ± 200 RFUs/min | 66 ± 1 | 1200 ± 700 | greater impact than vanoxerine |  |  | > 7.00 | 95 |  |  |  |  |  |
| Fc1ccc(C(OCCN2CCN(CC3CCCCC3)CC2)c2ccc(F)cc2)cc1 [Compound 7] | –21 ± 0.1% | –1600 ± 100 RFUs/min | 100 | 94 ± 2 | 1000 ± 16 | 100 (≈ 42.9 µg/mL) | –43 ± 0.2% | –2200 ± 60 RFUs/min | 32 ± 1 | 120 ± 90 |  |  |  |  |  |  |  |  |  |  |
| O=C(c1ccccc1)N1CCN(CCOC(c2ccc(F)cc2)c2ccc(F)cc2)CC1 [Compound 8] | –26 ± 0.2% | –1799 ± 400 RFUs/min | > 100 | 37 ± 2 | 600 ± 30 | > 100 | –63 ± 0.1% | –4300 ± 400 RFUs/min | 26 ± 2 | 120 ± 460 |  |  |  |  |  |  |  |  |  |  |
| Oc1ccc(CN2CCN(CCOC(c3ccc(F)cc3)c3ccc(F)cc3)CC2)cc1 [Compound 6] | –21 ± 0.2% | –1400 ± 330 RFUs/min | > 100 | 75 ± 2 | 1100 ± 40 | > 100 | –49 ± 0.3% | –2500 ± 200 RFUs/min | 36 ± 3 | 140 ± 480 |  |  |  |  |  |  |  |  |  |  |
| Fc1ccc(C(OCCN2CCNCC2)c2ccc(F)cc2)cc1 [Compound 4] | –16 ± 0.4% | –1000 ± 800 RFUs/min | > 100 | 57 ± 6 | 2700 ± 310 | > 100 | –57 ± 0.1% | –4500 ± 400 RFUs/min | 46 ± 2 | 800 ± 2000 |  |  |  |  |  |  |  |  |  |  |
| Fc1ccc(C(OCCN2CCC(Cc3ccccc3)CC2)c2ccc(F)cc2)cc1 [Compound 3] | –18 ± 6% | –1300 ± 200 RFUs/min | 50 | 286 ± 1 | 3000 ± 100 | 25 (≈ 10.5 µg/mL) | –11 ± 0.1% | –1400 ± 200 RFUs/min | 67 ± 1 | 480 ± 300 | greater impact than vanoxerine |  |  | 6.85 | 35.8 | 3.7 | 5.17 | 179 |  |  |
| Fc1ccc(C(OCCN2CCN(CCCc3ccccc3)CC2)c2ccc(F)cc2)cc1 [vanoxerine, 1-[2-[Bis(4-fluorophenyl)methoxy]ethyl]-4-(3-phenylpropyl)piperazine, reference compound] | –15 ± 1% | –1100 ± 950 RFUs/min | 50 | 299 ± 3 | 3000 ± 130 | 44 (≈ 19.8 µg/mL) | –11 ± 0.5% | –1100 ± 500 RFUs/min | 48 ± 3 | 490 ± 800 |  |  |  |  |  |  | […] |  | caused ventricular pro-arrhythmia | inhibited Streptococcus pneumoniae |
